Data as given in patent US10189841B2, “Purinones as ubiquitin-specific protease 1 inhibitors” (Forma Therapeutics, Inc., priority 2015, dated 2019).

Biological target: USP1 (construct USP1 (I-785, GG670, 671AA)/UAF1 (I-677)-Flag) (Homo sapiens (Human), UniProt O94782, G670A/G671A)
Test: Ubiquitin-Rhodamine 110 assay for USP1 activity
Type: biochemical
Conditions: USP1/UAF1 25 pM, Ub-Rh110 25 nM, 30 min preincubation
Experimental: Example 53: Ubitquin-Rhodamine 110 Assay for USP1 Activity
The HTS assay was performed in a final volume of 20 μL in assay buffer containing 20 mM Tris-HCl (pH 8.0, (1M Tris-HCl, pH 8.0 solution; Corning 46-031-CM)), 2 mM CaCl2 (1M Calcium Chloride solution; Sigma #21114) 1 mM GSH (L-Glutathione reduced; Sigma #G4251), 0.01% Prionex ([…] filtered, Sigma #G-0411), and 0.01% Triton X-100. Stock compound solutions were stored at −20° C. as 10 mM in DMSO. Up to 1 month prior to the assay, 2 mM test compounds were pre-dispensed into assay plates (Black, low volume; Corning #3820) and frozen at −20° C. Prestamped assay plates were allowed to come to room temperature on the day of the assay. For the screen, 100 nL of 2 mM was pre-dispensed for a final screening concentration of […] (DMSO(fc)=0.5%). The final concentration of the enzyme (USP1, construct USP1 (I-785, GG670, 671AA)/UAF1 (I-677)-Flag; Viva) in the assay was 100 pM. Final substrate (Ub-Rh110; Ubiquitin-Rhodamine 110, R&D Systems #U-555) concentration was 25 nM with [Ub-Rh110]<<Km. […] Plates were incubated stacked for 45 minutes at room temperature before fluorescence was read on the Envision (Excitation at 485 nm and Emission at 535 nm; Perkin Elmer) or on the PheraSTAR (Excitation at 485 nm and Emission at 535 nm; BMG Labtech)
Nanoliter quantities of either an 8-point or 10-point, 3-fold serial dilution in DMSO was pre-dispensed into assay plates (Perkin Elmer, ProxiPlate-384 F Plus, #6008269) for a final test concentration range of either 25 μM to 11 nM or 25 μM to 1.3 nM, respectively. The final concentration of the enzyme (USP1, construct USP1 (I-785, GG670, 671AA)/UAF1 (I-677)-Flag; Viva) in the assay was 25 pM. Final substrate (Ub-Rh110; Ubiquitin-Rhodamine 110, R&D Systems #U-555) concentration was 25 nM with [Ub-Rh110]<<Km. […] Plates were incubated stacked for 20 minutes at room temperature before 5 μL of stop solution (final concentration of 10 mM citric acid in assay buffer (Sigma, #251275-500G)). Fluorescence was read on the Envision (Excitation at 485 nm and Emission at 535 nm; Perkin Elmer) or on the PheraSTAR (Excitation at 485 nm and Emission at 535 nm; BMG Labtech).
For both assay formats data were reported as percent inhibition compared with control wells based on the following equation: % inh=[1−((FLU−AveLow)/(AveHigh−AveLow))]×100 where FLU=measured Fluorescence, AveLow=average Fluorescence of no enzyme control (n=16), and AveHigh=average Fluorescence of DMSO control (n=16). IC50 values were determined by curve fitting of the standard 4 parameter logistic fitting algorithm included in the Activity Base software package: IDBS XE Designer Model205. Data is fitted using the Levenburg Marquardt algorithm.

Sequence of USP1 (construct USP1 (I-785, GG670, 671AA)/UAF1 (I-677)-Flag) (O94782 whole entry G670A/G671A): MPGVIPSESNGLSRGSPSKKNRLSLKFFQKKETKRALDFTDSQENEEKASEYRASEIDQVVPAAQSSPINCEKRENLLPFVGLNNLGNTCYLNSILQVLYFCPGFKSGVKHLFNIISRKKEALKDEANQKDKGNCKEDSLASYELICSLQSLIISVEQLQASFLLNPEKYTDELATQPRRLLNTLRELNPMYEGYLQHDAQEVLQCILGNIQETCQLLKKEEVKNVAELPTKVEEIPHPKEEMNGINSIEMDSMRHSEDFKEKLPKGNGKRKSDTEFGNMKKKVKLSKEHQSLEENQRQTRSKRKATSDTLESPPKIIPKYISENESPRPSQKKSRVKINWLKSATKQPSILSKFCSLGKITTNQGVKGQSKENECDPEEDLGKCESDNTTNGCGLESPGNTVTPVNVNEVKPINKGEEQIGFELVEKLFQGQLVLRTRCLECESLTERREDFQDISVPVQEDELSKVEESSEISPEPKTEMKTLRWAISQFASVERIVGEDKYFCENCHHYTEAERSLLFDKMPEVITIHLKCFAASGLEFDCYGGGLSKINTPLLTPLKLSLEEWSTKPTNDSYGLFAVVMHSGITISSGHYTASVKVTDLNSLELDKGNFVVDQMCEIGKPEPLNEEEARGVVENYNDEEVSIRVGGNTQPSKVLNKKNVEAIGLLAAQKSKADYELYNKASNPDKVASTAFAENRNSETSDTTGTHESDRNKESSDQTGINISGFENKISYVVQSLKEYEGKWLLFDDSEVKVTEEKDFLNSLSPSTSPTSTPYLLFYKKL
Sequence of USP1 (construct USP1 (I-785, GG670, 671AA)/UAF1 (I-677)-Flag) (Q8TAF3 whole entry partner): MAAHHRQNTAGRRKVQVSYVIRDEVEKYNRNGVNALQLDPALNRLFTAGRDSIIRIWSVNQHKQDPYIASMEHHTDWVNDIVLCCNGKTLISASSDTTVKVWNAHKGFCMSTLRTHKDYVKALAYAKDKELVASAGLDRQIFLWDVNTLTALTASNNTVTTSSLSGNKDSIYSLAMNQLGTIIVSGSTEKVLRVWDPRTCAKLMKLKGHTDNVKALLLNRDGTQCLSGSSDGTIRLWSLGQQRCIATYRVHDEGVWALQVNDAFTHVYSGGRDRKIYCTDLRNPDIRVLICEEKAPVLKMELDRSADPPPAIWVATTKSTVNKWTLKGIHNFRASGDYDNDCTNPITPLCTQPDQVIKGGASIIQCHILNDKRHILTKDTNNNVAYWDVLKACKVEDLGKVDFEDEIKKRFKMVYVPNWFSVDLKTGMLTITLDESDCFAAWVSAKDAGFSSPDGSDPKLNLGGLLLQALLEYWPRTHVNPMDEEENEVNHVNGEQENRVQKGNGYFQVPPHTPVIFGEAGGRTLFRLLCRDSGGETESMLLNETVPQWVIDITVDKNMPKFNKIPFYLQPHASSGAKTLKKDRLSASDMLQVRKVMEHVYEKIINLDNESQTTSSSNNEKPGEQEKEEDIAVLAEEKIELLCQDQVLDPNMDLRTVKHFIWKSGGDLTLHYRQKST

Row | SMILES | IC50 [nM]
1 | Cn1ccc2cccc(-c3ncc4[nH]c(=O)n(Cc5ccc(-n6cccn6)cc5)c4n3)c21 [Compound I-29, 9-(4-(1H-pyrazol-1-yl)benzyl)-2-(1-methyl-1H-indol-7-yl)-7,9-dihydro-8H-purin-8-one] | 200 to 2000
2 | Cn1cc(C(F)(F)F)nc1-c1ccc(Cn2c(=O)[nH]c3cnc(-c4cccnc4C4CC4)nc32)cc1 [Compound I-30, 2-(2-cyclopropylpyridin-3-yl)-9-(4-(1-methyl-4-(trifluoromethyl)-1H-imidazol-2-yl)benzyl)-7,9-dihydro-8H-purin-8-one] | < 50
3 | Cn1cc(C(F)(F)F)nc1-c1ccc(Cn2c(=O)[nH]c3cnc(-c4ccccc4C(F)F)nc32)cc1 [Compound I-31, 2-(2-(difluoromethyl)phenyl)-9-(4-(1-methyl-4-(trifluoromethyl)-1H-imidazol-2-yl)benzyl)-7,9-dihydro-8H-purin-8-one] | < 50
4 | CC(C)c1ncccc1-c1ncc2[nH]c(=O)n(Cc3ccc(-c4nc(C(F)(F)F)cn4C4COC4)cc3)c2n1 [Compound I-32, 2-(2-isopropylpyridin-3-yl)-9-(4-(1-(oxetan-3-yl)-4-(trifluoromethyl)-1H-imidazol-2-yl)benzyl)-7,9-dihydro-8H-purin-8-one] | 50 to 200
5 | O=c1[nH]c2cnc(-c3cccnc3C3CC3)nc2n1Cc1ccc(-c2nc(C(F)(F)F)cn2C2COC2)cc1 [Compound I-33, 2-(2-cyclopropylpyridin-3-yl)-9-(4-(1-(oxetan-3-yl)-4-(trifluoromethyl)-1H-imidazol-2-yl)benzyl)-7,9-dihydro-8H-purin-8-one] | < 50
6 | CN1CCc2cccc(-c3ncc4[nH]c(=O)n(Cc5ccc(-c6nc(C(F)(F)F)cn6C)cc5)c4n3)c21 [Compound I-34, 9-(4-(1-methyl-4-(trifluoromethyl)-1H-imidazol-2-yl)benzyl)-2-(1-methylindolin-7-yl)-7,9-dihydro-8H-purin-8-one] | < 50
7 | Cn1cc(C(F)(F)F)nc1-c1ccc(Cn2c(=O)[nH]c3cnc(-c4cccnc4OC(F)F)nc32)cc1 [Compound I-35, 2-(2-(difluoromethoxy)pyridin-3-yl)-9-(4-(1-methyl-4-(trifluoromethyl)-1H-imidazol-2-yl)benzyl)-7,9-dihydro-8H-purin-8-one] | < 50
8 | Cn1cc(C(F)(F)F)nc1-c1ccc(Cn2c(=O)[nH]c3cnc(-c4cccc5c4OC(F)(F)O5)nc32)cc1 [Compound I-36, 2-(2,2-difluorobenzo[d][1,3]dioxol-4-yl)-9-(4-(1-methyl-4-(trifluoromethyl)-1H-imidazol-2-yl)benzyl)-7,9-dihydro-8H-purin-8-one] | 200 to 2000
9 | Cn1cc(C(F)(F)F)nc1-c1ccc(Cn2c(=O)[nH]c3cnc(-c4ccccc4OC(F)(F)F)nc32)cc1 [Compound I-37, 9-(4-(1-methyl-4-(trifluoromethyl)-1H-imidazol-2-yl)benzyl)-2-(2-(trifluoromethoxy)phenyl)-7,9-dihydro-8H-purin-8-one] | < 50
10 | CC(=O)c1ccccc1-c1ncc2[nH]c(=O)n(Cc3ccc(-c4nc(C(F)(F)F)cn4C)cc3)c2n1 [Compound I-38, 2-(2-acetylphenyl)-9-(4-(1-methyl-4-(trifluoromethyl)-1H-imidazol-2-yl)benzyl)-7,9-dihydro-8H-purin-8-one] | < 50
11 | Cc1cc(C(F)(F)F)nn1-c1ccc(Cn2c(=O)[nH]c3cnc(-c4cccnc4C(C)C)nc32)cc1 [Compound I-40, 2-(2-isopropylpyridin-3-yl)-9-(4-(5-methyl-3-(trifluoromethyl)-1H-pyrazol-1-yl)benzyl)-7,9-dihydro-8H-purin-8-one] | < 50
12 | Cc1cc(C(F)(F)F)n(-c2ccc(Cn3c(=O)[nH]c4cnc(-c5cccnc5OCC(F)(F)F)nc43)cc2)n1 [Compound I-41, 9-(4-(3-methyl-5-(trifluoromethyl)-1H-pyrazol-1-yl)benzyl)-2-(2-(2,2,2-trifluoroethoxy)pyridin-3-yl)-7,9-dihydro-8H-purin-8-one] | 50 to 200
13 | COCCn1cc(C(F)(F)F)nc1-c1ccc(Cn2c(=O)[nH]c3cnc(-c4cccnc4C(C)C)nc32)cc1 [Compound I-43, 2-(2-isopropylpyridin-3-yl)-9-(4-(1-(2-methoxyethyl)-4-(trifluoromethyl)-1H-imidazol-2-yl)benzyl)-7,9-dihydro-8H-purin-8-one] | 50 to 200
14 | Cn1cc(C(F)(F)F)nc1-c1ccc(Cn2c(=O)[nH]c3cnc(-c4cccc5cnn(C)c45)nc32)cc1 [Compound I-44, 2-(1-methyl-1H-indazol-7-yl)-9-(4-(1-methyl-4-(trifluoromethyl)-1H-imidazol-2-yl)benzyl)-7,9-dihydro-8H-purin-8-one] | < 50
15 | Cn1cc(C(F)(F)F)nc1-c1ccc(Cn2c(=O)[nH]c3cnc(-c4cccc5ccn(C)c45)nc32)cc1 [Compound I-45, 2-(1-methyl-1H-indol-7-yl)-9-(4-(1-methyl-4-(trifluoromethyl)-1H-imidazol-2-yl)benzyl)-7,9-dihydro-8H-purin-8-one] | < 50
16 | CC(C)c1ncccc1-c1ncc2[nH]c(=O)n(Cc3ccc(-c4ccn(C)n4)cc3)c2n1 [Compound I-46, 2-(2-isopropylpyridin-3-yl)-9-(4-(1-methyl-1H-pyrazol-3-yl)benzyl)-7,9-dihydro-8H-purin-8-one] | 200 to 2000
17 | Cc1cn(C)nc1-c1ccc(Cn2c(=O)[nH]c3cnc(-c4cccnc4C(C)C)nc32)cc1 [Compound I-47, 9-(4-(1,4-dimethyl-1H-pyrazol-3-yl)benzyl)-2-(2-isopropylpyridin-3-yl)-7,9-dihydro-8H-purin-8-one] | 200 to 2000
18 | Cn1cc(C(F)(F)F)nc1-c1ccc(Cn2c(=O)n(C)c3cnc(-c4cccnc4OC(F)F)nc32)cc1 [Compound I-48, 2-(2-(difluoromethoxy)pyridin-3-yl)-7-methyl-9-(4-(1-methyl-4-(trifluoromethyl)-1H-imidazol-2-yl)benzyl)-7,9-dihydro-8H-purin-8-one] | < 50
19 | Cn1cc(C(F)(F)F)nc1-c1ccc(Cn2c(=O)n(C)c3cnc(-c4ccccc4OC(F)(F)F)nc32)cc1 [Compound I-49, 7-methyl-9-(4-(1-methyl-4-(trifluoromethyl)-1H-imidazol-2-yl)benzyl)-2-(2-(trifluoromethoxy)phenyl)-7,9-dihydro-8H-purin-8-one] | < 50
20 | Cn1cc(C(F)(F)F)nc1-c1ccc(Cn2c(=O)n(C)c3cnc(-c4cccnc4OCC(F)(F)F)nc32)cc1 [Compound I-50, 7-methyl-9-(4-(1-methyl-4-(trifluoromethyl)-1H-imidazol-2-yl)benzyl)-2-(2-(2,2,2-trifluoroethoxy)pyridin-3-yl)-7,9-dihydro-8H-purin-8-one] | < 50
21 | CC(C)c1ncccc1-c1ncc2[nH]c(=O)n(C3(c4ccc(-c5nc(C(F)(F)F)cn5C)cc4)CC3)c2n1 [Compound I-51, 2-(2-isopropylpyridin-3-yl)-9-(1-(4-(1-methyl-4-(trifluoromethyl)-1H-imidazol-2-yl)phenyl)cyclopropyl)-7,9-dihydro-8H-purin-8-one] | < 50
22 | Cc1cc(Cl)nn1-c1ccc(Cn2c(=O)[nH]c3cnc(-c4cccnc4C(C)C)nc32)cc1 [Compound I-52, 9-(4-(3-chloro-5-methyl-1H-pyrazol-1-yl)benzyl)-2-(2-isopropylpyridin-3-yl)-7,9-dihydro-8H-purin-8-one] | < 50
23 | Cc1cc(Cl)n(-c2ccc(Cn3c(=O)[nH]c4cnc(-c5cccnc5C(C)C)nc43)cc2)n1 [Compound I-53, 9-(4-(5-chloro-3-methyl-1H-pyrazol-1-yl)benzyl)-2-(2-isopropylpyridin-3-yl)-7,9-dihydro-8H-purin-8-one] | < 50
24 | Cc1cccn1-c1ccc(Cn2c(=O)[nH]c3cnc(-c4cccnc4C(C)C)nc32)cc1 [Compound I-54, 2-(2-isopropylpyridin-3-yl)-9-(4-(2-methyl-1H-pyrrol-1-yl)benzyl)-7,9-dihydro-8H-purin-8-one] | 200 to 2000
